Measurements taken from ChEMBL document CHEMBL1159189, “Pyrazolo[3,4-d]pyrimidines; adenosine receptor selectivity” (Bioorg Med Chem Lett, 1995).

Columns and labels:
Adenosine receptor A1 = target: T1, Adenosine receptor A1 (Rattus norvegicus, UniProt P25099); assay: Binding affinity for Adenosine A1 receptor by inhibition of [3H]PIA binding to whole rat brain membranes; assay type: cell membranes, Membrane
T1 sequence (P25099 whole entry): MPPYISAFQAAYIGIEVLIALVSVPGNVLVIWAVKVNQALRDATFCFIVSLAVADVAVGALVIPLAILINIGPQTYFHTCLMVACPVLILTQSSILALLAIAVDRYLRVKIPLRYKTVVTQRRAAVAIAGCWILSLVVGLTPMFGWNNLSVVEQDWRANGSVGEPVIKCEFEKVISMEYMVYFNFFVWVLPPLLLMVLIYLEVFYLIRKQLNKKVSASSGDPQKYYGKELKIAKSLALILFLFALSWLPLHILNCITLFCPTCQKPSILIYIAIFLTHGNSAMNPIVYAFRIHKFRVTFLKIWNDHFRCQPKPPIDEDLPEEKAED

[1] = target: Adenosine receptors; A1 & A2a (Rattus norvegicus) (UniProt P25099+P30543); assay: Ratio of binding affinities for adenosine receptor A2a and adenosine receptor A1; assay type: protein assay
Adenosine receptor A2a [2] = target: T2, Adenosine receptor A2a (Rattus norvegicus, UniProt P30543); assay: Binding affinity towards Adenosine A2a receptor by inhibition of [3H]CGS-21680 binding to rat brain striatum membranes; assay type: cell membranes, Membrane
Adenosine receptor A2a [3] = target: T2, Adenosine receptor A2a; assay: Inhibitory activity against Adenosine A2a receptor binding site

T2 sequence (P30543 whole entry): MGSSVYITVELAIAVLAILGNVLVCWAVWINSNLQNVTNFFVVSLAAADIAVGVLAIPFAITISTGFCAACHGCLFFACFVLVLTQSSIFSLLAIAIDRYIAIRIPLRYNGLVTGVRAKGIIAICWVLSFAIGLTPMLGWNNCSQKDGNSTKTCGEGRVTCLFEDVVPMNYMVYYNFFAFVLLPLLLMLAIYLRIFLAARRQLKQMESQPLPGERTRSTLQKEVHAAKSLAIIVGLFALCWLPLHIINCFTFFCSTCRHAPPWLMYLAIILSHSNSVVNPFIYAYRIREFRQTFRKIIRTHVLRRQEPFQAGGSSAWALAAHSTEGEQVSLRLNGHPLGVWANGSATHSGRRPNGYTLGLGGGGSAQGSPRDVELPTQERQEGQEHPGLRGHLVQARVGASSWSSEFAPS
Sequence of Adenosine receptors; A1 & A2a (Rattus norvegicus) (P30543 whole entry, looked up, one chain of several): as the sequence (P30543 whole entry) above

SMILES: NC(=O)CCSc1nc(N)c2cnn(-c3ccccc3)c2n1
- Ki (Adenosine receptor A1): 428 nM
- Ratio [1]: 0.24
- Ki (Adenosine receptor A2a [2]): 101 nM

SMILES: CC(Sc1nc(SC(C)C(N)=O)c2cnn(-c3ccccc3)c2n1)C(N)=O (stereo not given)
- Ki (Adenosine receptor A1): 229 nM
- Ki (Adenosine receptor A2a [2]): 146 nM

SMILES: CCNC(=O)CSc1nc(N)c2cnn(-c3ccccc3)c2n1
- Ki (Adenosine receptor A1): 12.1 nM
- Ratio [1]: 10.8
- Ki (Adenosine receptor A2a [2]): 131 nM

SMILES: CCCCn1c(=O)[nH]c2c(cnn2-c2cccc(Cl)c2)c1=N
- IC50 (Adenosine receptor A2a [3]): 19200 nM

SMILES: NC(=O)CSc1nc(N)c2cnn(-c3ccccc3)c2n1
- Ki (Adenosine receptor A1): 28.5 nM
- Ratio [1]: 1.6
- Ki (Adenosine receptor A2a [2]): 44.9 nM

SMILES: CCNC(=O)CCSc1nc(N)c2cnn(-c3ccccc3)c2n1
- Ki (Adenosine receptor A1): 551 nM
- Ratio [1]: 2.3
- Ki (Adenosine receptor A2a [2]): 1280 nM
